The values that follow come from patent publication US11058903B2, “Methods for identifying and treating cachexia or pre-cachexia using an inhibitor of rage” (THE BROAD INSTITUTE, INC., priority 2013, dated 2021).

“Also recorded” adds a separate entry of the source.

One test concerns pancreatic cancer cells. Nature of the test: CellTiter Glo cell number assay, chemotherapy with or without soluble RAGE. The test is classed as cell-based. To be noted: treated for 5 days; Gemcitibine alone or with increasing doses of recombinant human soluble RAGE.
In a further test the test system is HSkM cells. Nature of the test: In-Cell Western of myosin heavy chain (MyoHC) content in muscle cells exposed to CI-CM. The test is classed as cell-based, human. The source says:
FIG. 21 is a chart showing the quantification of myosin heavy chain (MyoHC) content determined by In-Cell Western analysis of in vitro HSkM cells treated with media conditioned by cachexia-inducing MkN1 and G361 cells and in vitro HSkM cells treated with media conditioned by non-cachexia-inducing 293 cells, either in the presence or absence of a MEK/ERK inhibitor PD184352 (PD184).
FIG. 22 is a chart showing the myosin heavy chain (MyoHC) content determined by In-Cell Western analysis of in vitro HSkM cells pre-treated (for 2 days) or not pre-treated with cachexia-inducing conditioned media (“CI-CM”), either in the presence or absence of an ERK1/2 inhibitor, SCH772984 (SCH2984).
FIGS. 23A and 23B are a series of charts showing the dose response of myosin heavy chain (MyoHC) content determined by In-Cell Western analysis of muscle cells treated with a RAGE Anti-Peptide (FIG. 23A) or an anti-RAGE mAb (FIG. 23B), either in the absence or presence of cachexia-inducing conditioned media (CI-CM).
FIG. 24 is a chart showing the dose response of myosin heavy chain (MyoHC) content determined by In-Cell Western analysis of muscle cells treated with a recombinant soluble RAGE, either in the presence of cachexia-inducing conditioned media (CI-CM) or non-cachexia-inducing conditioned media (NCI-CM). […]

The next test concerns MEK/ERK. Nature of the test: Western blot of phosphorylated MEK and ERK in muscle cells exposed to cachexia-inducing conditioned media (CI-CM). The test is classed as cell-based, human. To be noted: FIG. 20; for CI-CM stimulated phosphorylation of ERK: human muscle cells stimulated by CI-CM; for MEK/ERK activation (pMEK, pERK) by cachexia stimuli in CI-CM: muscle cells exposed to CI-CM, relative to NCI-CM, Western blot. An excerpt:
FIG. 20 is an image of a Western blot showing phosphorylated MEK (pMEK) and phosphorylated ERK (pERK) in muscle cells exposed to cachexia-inducing conditioned media (CI-CM), either in the absence or presence of the MEK/ERK inhibitors, PD184352 (PD184) and trametinib (Tram). Also shown are pMEK and pERK levels in muscle cells exposed to non-cachexia-inducing conditioned media (NCI-CM).
Inhibition of MEK by exposure to PD1 84352 or trametinib blocked CI-CM stimulated phosphorylation of ERK (FIG. 20).
(In general: Immunoblotting shows a protein as a band on a membrane.)

The test system of test [1] is differentiated primary adipocytes. Nature of the test: Lipid loss in adipocytes treated with CI-CM (bodipy/DAPI staining). The test is classed as cell-based, human. The settings on record: 5 days CI-CM, FIG. 42. The source says:
FIG. 42 includes six panels showing adipocytes in cultured stained with bodipy to highlight lipids and DAPI to stain nuclei. Lipids are lost in cells treated for 5 days with cachexia (CXA) inducing conditioned media (CM). Lipid loss is inhibited by inhibiting RAGE signaling.
Lipid loss from differentiated primary adipocytes occurs within 5 days of contact with cachexia-inducing conditioned media (FIG. 42A). This loss is inhibited in adipocytes treated with Rage inhibitors, anti-RAGE monoclonal antibody AF1145 or Tramatenib. This phenotypic response is also seen in melanoma cells.
The effects of treatment with RAGE blocking antibodies and Tremetinib are shown (FIG. 42).

For another test, the system named is human muscle cells. Nature of the test: Testing of secreted proteins/cytokines for induction of the L1000 cachexia signature in muscle cells. The settings on record: in vitro systems described. The test is classed as cell-based. Here is the method:
FIG. 32 are graphs showing cytokine abundance relative to cachexia in patient plasma and conditioned media. Human cytokines (300 on cytokine array) in muscle were tested. None of the expected “usual suspect” cytokines induced the cachectic phenotype or gene expression signature in human muscle cells. IL6, INHBA, IFNG, IL10, IL1, TNFa was assayed in patient plasma and conditioned media.
FIG. 33 is a graph showing testing of human cytokines for induction of cancer cachexia signature. For some the enrichment score was weak (e.g., 1.25).
A faithful read-out of the cachectic phenotype was also developed using a novel high-throughput, low-cost gene expression profiling method (L1000) (FIG. 5). L1000 involves the profiling of 1000 human transcripts from which the remainder of the transcriptome can be computationally inferred. This method, validated in over 1 million samples, allowed for profiling of small numbers of cells grown in 384-well plates.
Therefore, it is likely that the major cachexia-inducing factors were yet to be discovered.

`Nc1ccn([C@@H]2O[C@H](CO)[C@@H](O)C2(F)F)c(=O)n1` [Gemcitibine]: the “pancreatic cancer cell numbers (CellTiter Glo)” value in the test on pancreatic cancer cells was “reduction”.

For `O=C(NOCC1CC1)c1ccc(F)c(F)c1Nc1ccc(I)cc1Cl` [PD184352], in the test on HSkM cells (HSkM cells with media conditioned by MkN1 and G361 cells, low-dose, dose curve, FIG. 21), the “cachectic induced loss of myosin heavy chain (MyoHC) protein” value is on record as “blocks loss of MyoHC; also recorded: block”. Further, in the test on MEK/ERK, the “CI-CM stimulated phosphorylation of ERK” value was “blocked” and the “MEK/ERK activation (pMEK, pERK) by cachexia stimuli in CI-CM” value is “inhibited”.

As to `O=C(Nc1ccc2[nH]nc(-c3ccncc3)c2c1)C1CCN(CC(=O)N2CCN(c3ccc(-c4ncccn4)cc3)CC2)C1` (stereo not drawn) [SCH772984], the “reversal of cachectic induced loss of myosin heavy chain (MyoHC)” value in the test with HSkM cells (HSkM cells pre-treated (2 days) or not with CI-CM, dose response, FIG. 22) is “can reverse the MyoHC loss at a certain dose, beyond which the benefit is lost; also recorded: (partially) reverse; also recorded: reduced in a dose-dependent manner”.

As for `CC(=O)Nc1cccc(-n2c(=O)n(C3CC3)c(=O)c3c(Nc4ccc(I)cc4F)n(C)c(=O)c(C)c32)c1` [trametinib, N-[3-[3-Cyclopropyl-5-[(2-fluoro-4-iodophenyl)amino]-3,4,6,7-tetrahydro-6,8-dimethyl-2,4,7-trioxopyrido[4,3-d]pyrimidin-1(2H)-yl]phenyl]acetamide], in the test with MEK/ERK, the “CI-CM stimulated phosphorylation of ERK” value was “blocked” and the “MEK/ERK activation (pMEK, pERK) by cachexia stimuli in CI-CM” value is reported as “inhibited”. Further, the “lipid loss from adipocytes caused by cachexia-inducing conditioned media” value in test [1] (listed as Tramatenib) is “inhibited”. In addition, in test [1] (listed as Tremetinib), the “lipid loss from adipocytes caused by cachexia-inducing conditioned media” value is given as “block the loss of lipid”.

As to Activin, the “induction of the cachexia signature” value with human muscle cells is recorded as “none of them strongly induced the cachexia signature”.

For the molecule “IFNγ: secreted protein tested as candidate cachexia-inducing protein”, the “induction of the cachexia signature” value in the test on human muscle cells was “none of them strongly induced the cachexia signature”.

As to “IL-6: secreted protein tested as candidate cachexia-inducing protein”, the “induction of the cachexia signature” value in the test with human muscle cells was “none of them strongly induced the cachexia signature”.

On to “Myostatin: secreted protein tested as candidate cachexia-inducing protein”, for which the “induction of the cachexia signature” value in the test on human muscle cells is on record as “none of them strongly induced the cachexia signature”.

Turning to TNFα, the “induction of the cachexia signature” value in the test with human muscle cells is recorded as “none of them strongly induced the cachexia signature”.

B1: IL-10: secreted protein tested as candidate cachexia-inducing protein (protein, UniProt P22301 19-178, looked up)
Interleukin-10: SPGQGTQSENSCTHFPGNLPNMLRDLRDAFSRVKTFFQMKDQLDNLLLKESLLEDFKGYLGCQALSEMIQFYLEEVMPQAENQDPDIKAHVNSLGENLKTLRLRLRRCHRFLPCENKSKAVEQVKNAFNKLQEKGIYKAMSEFDIFINYIEAYMTMKIRN
B1: the “induction of the cachexia signature” value with human muscle cells is reported as “none of them strongly induced the cachexia signature”.
